The source of these data is paper PMC6407204, “Oral administration of the cannabigerol derivative VCE-003.2 promotes subventricular zone neurogenesis and protects against mutant huntingtin-induced neurodegeneration” (Translational Neurodegeneration, 2019).

One series in a line: in vitro. Conditions: human, microsomes, pH 7.4. How it is done:
The final incubation volume was 25 μL. […] The reactions were stopped by the addition of 50 μL methanol containing internal standard at the appropriate time points. The incubation plates were centrifuged at 2500 rpm for 20 min at 4 °C to precipitate the protein. Following protein precipitation, the sample supernatants were analyzed using LC-MS/MS. From a plot of ln peak area ratio (compound peak area/internal standard peak area) against time, the gradient of the line was determined. Subsequently, half-life and intrinsic clearance was calculated using the equations below: Elimination rate constant (k) = (− gradient).

For another series, the system named is murine models of HD. Also noted: method as in PMID 25252936. Conditions: 3-nitropropionic acid injection model and R6/2 model, via PPARγ; cited from earlier work.
For another series, the system named is S. typhimurium TA98. Briefly: AMES reverse mutation assay, TA98. The series is classed as cell-based. Conditions: TA98, S9 yes. How it is done:
(§1) Supplementary file 40035_2019_148_MOESM4_ESM.pdf: Additional file 4: AMES Data Summary. AMES Experimental Procedure. Approximately ten million bacteria are exposed in triplicate to VCE-003-.2 (7.8, 15.6, 31.3, 62.5, 125 and 250 μg/ml), a negative control (vehicle) and a positive control for 90 min in medium containing a low concentration of histidine (sufficient for about 2 doublings). The cultures were then diluted into indicator medium lacking histidine and dispensed into 48 wells of a 384 well plate (micro-plate format, MPF). The plate was incubated for 48 h at 37 °C, and the number of wells showing growth were counted and compared to the vehicle control. An increase in the number of colonies of at least two-fold over baseline (mean + SD of the vehicle control) and a dose response indicates a positive response. […] Where indicated, S9 fraction from the livers of Aroclor 1254-treated rats was included in the incubation at a final concentration of 4.5%. An NADPH-regenerating system is also included to ensure a steady supply of reducing equivalents. The strains used in this study were S. typhimurium TA98 (hisD3052, rfa, uvrB/pKM10 for detection of frame-shift mutations) and S. typhimurium TA100 ([…], rfa, uvrB/pKM101 for detection of base-pair substitutions). VCE-003.2 was assessed for its mutagenic potential in the AMES reverse mutation assay. This test was performed in the absence and presence of S9 metabolic activation. […] The positive controls all behaved as expected. (PDF 568 kb)

The test system of the next series is S. typhimurium TA100. Briefly: AMES reverse mutation assay, TA100. The series is classed as cell-based. The following applies: TA100, S9 yes. How it is done:
as §1

As a reminder, the half-life is the time in which the quantity being followed falls by half. Low readings indicate fast loss, high ones slow loss. Usually microsomal CLint stands for the rate of metabolic loss divided by the concentration.

Regarding `CCCCCc1cc(O)c(C/C=C(\C)CCC=C(C)C)c(O)c1` [CBG, Cannabigerol], in “in vitro”, the half-life is 13.4 min and the microsomal CLint was determined as 103 µL/min/mg. For the same compound, in the series with murine models of HD, the “motor symptoms, neuroinflammation and neurodegeneration in HD models” value was “alleviates motor symptoms, neuroinflammation and neurodegeneration”.
In the series “in vitro”, `COc1ccc2c(c1)[C@]13CCCC[C@@H]1[C@H](C2)N(C)CC3` [Dextrom Etorphan, dextromethorphan] yielded a half-life of 58.1 min and a microsomal CLint of 23.9 µL/min/mg.
Take `Nc1cccc2cc3ccccc3cc12` [aminoanthracene, reference compound]: the “AMES Result” value in the series with S. typhimurium TA98 and in the series with S. typhimurium TA100 was “Positive” throughout.
